Laboratory results as given in US11433053B2, “LSD1 inhibitor and preparation method and application thereof” (CSPC ZHONGQI PHARMACEUTICAL TECHNOLOGY (SHIJIAZHUANG) CO., …, priority 2017, dated 2022).

Legend:
[1] = Pharmacokinetic evaluation in C57BL/6 mice after intravenous and oral administration; assay type: in vivo; settings: male, mouse, plasma; for Cmax / clearance / half-life / Vd: IV 1 mg/kg; for Cmax: oral 2 mg/kg, route of Cmax not stated, read-out: max concentration Cmax; for clearance: read-out: clearance CL; for half-life: read-out: half-life T1/2 (IV, h) (converted); for Vd: read-out: volumes of distribution Vdss; for bioavailability: PO 2 mg/kg vs IV 1 mg/kg, read-out: bioavailability F (%); for AUC(0-t): PO 2 mg/kg, read-out: the area under the plasma concentration-time curve AUC0-last PO
Experimental: Experimental purposes: To test the pharmacokinetics of compounds in C57BL/6 mice
C57BL/6 mice (male, 7-9 weeks old, Shanghai Slack)
Test the pharmacokinetics characteristics of rodents after intravenous and oral administration in accordance with standard protocols, and the candidate compound was formulated into a clear solution in the experiment. The mice were administered by intravenous injection and orally once. The intravenous and oral vehicle is a 10% aqueous solution of hydroxypropyl β-cyclodextrin or a physiological saline solution. Six male C57BL/6 mice were employed in this assay, three of them were administered intravenously at a dose of 1 mg/kg, plasma samples were collected at 0 h (before administration) and 0.0833, 0.25, 0.5, 1, 2, 4, 7, 24 h after administration. Another three mice were administered by oral gavage at a dose of 2 mg/kg, plasma samples were collected at 0 h (before administration) and 0.5, 1, 2, 3, 4, 6, 24 h after administration. Collect whole blood samples within 24 hours, centrifuge at 3000 g for 15 minutes, separate the supernatant to obtain a plasma sample, 4 times volume of the internal standard acetonitrile solution was added to precipitate the protein. Centrifuge the supernatant and add an equal volume of water and centrifuge to take the supernatant. LC-MS/MS was used to quantitatively analyze plasma concentrations and calculate pharmacokinetic parameters such as max concentration (Cmax), clearance (CL), half-life (T1/2), volumes of distribution (Vdss), the area under the plasma concentration-time curve (AUC0-last), bioavailability (F), etc.

hERG potassium channel = hERG potassium channel (Homo sapiens (Human), UniProt Q12809); assay: Assay on inhibiting hERG potassium channel (automatic patch clamp, CHO-hERG cells); assay type: cell-based; settings: Qpatch, max test concentration 40 μM
Experimental: Experimental purpose: Using automatic patch clamp method to detect the effect of the sample to be tested on hERG potassium channel.
4.1.1 CHO-hERG cells were cultured in 175 cm^2 flasks. When the cell density was increased to 60-80%, the culture solution was removed and the resultant was washed with 7 mL PBS (Phosphate Buffered Saline phosphate buffer), then 3 mL of digestive juice was added to digest.
4.1.2 After the digestion finished, 7 mL culture solution was added to neutralize. Then centrifuge, aspirate the supernatant, and then resuspend by adding 5 mL culture solution to ensure a cell density of 2-5×10^6/mL.
Single cell high impedance sealing and whole cell pattern formation were all done automatically by the Qpatch instrument. After the whole-cell recording mode was obtained, the cells were clamped at −80 mV. 50-Millisecond−50 mV preamplifier was applied prior to a 5 second+40 mV depolarization stimulus. Then the voltage was repolarized to −50 mV for 5 seconds and back to −80 mV. This voltage stimulation was applied every 15 seconds, and the extracellular fluid was recorded over 5 minutes after 2 minutes' record, and then the administration process was started. The compound concentration was started from the lowest test concentration, and each test concentration was given for 2.5 minutes. Test at least 3 cells (n≥3) for each concentration.
4.4.1 Dilute 20 mM mother liquor of the compound with extracellular fluid 5 μL of 20 mM mother liquor of the compound was added to 2495 μL extracellular fluid, and the mixture was 500-fold diluted to 40 μM. Then 0.2% DMSO in extracellular fluid was 3-fold diluted sequentially to obtain the final concentration to be tested.
4.4.2 The max test concentration was 40 μM, 6 concentrations were 40, 13.33, 4.44, 1.48, 0.49, and 0.16 μM respectively.
Experimental data was analyzed by XLFit software.

[2] = test system: human small cell lung cancer NCI-H1417 cells subcutaneous xenograft tumor; assay: In vivo pharmacodynamic study, NCI-H1417 subcutaneous xenograft tumor CB-17 SCID mouse model; set-up: species or system CB-17 SCID mice; settings: PO, QD
Experimental: The purpose of this experiment was to investigate the efficacy of some of the compounds of the present invention in the in vivo xenograft tumor of human small cell lung cancer NCI-H1417 cells in a CB-17 SCID mouse model.
Week age and weight: 6-8 weeks old, weight 18-23 g
Human small cell lung cancer NCI-H1417 cells were cultured in vitro in a single layer cultured in RPMI-1640 medium (Sigma-aldrich, R0883), supplemented with 10% fetal bovine serum and cultured at 37° C. 5% CO2. When the cell saturation is 80%-90%. The cells are harvested, counted, and inoculated.
0.2 mL of 10×10^6 (NCI-H1417 cells were subcutaneously inoculated into the right back of each mouse (PBS:Matrigel=1:1). After 21 days of tumor inoculation, group administration was started when the average volume reached 107 mm^3.
The experimental solvent was the 10% hydroxypropyl-β-cyclodextrin solution. The preparation method was as follows: 100 g of hydroxypropyl-β-cyclodextrin was weighed into a 1000 mL jar, 800 mL of ultrapure water was added, stirred overnight until completely dissolved, and then made up to 1000 mL. The test substance was dissolved in a solvent, and was prepared into a uniform solution of a certain concentration and stored at 4° C.
The experimental indicator is to investigate whether tumor growth is inhibited, delayed or cured. Tumor diameters were measured twice a week using vernier calipers. The tumor volume is calculated as: V=0.5a×b^2, and a and b represent the long and short diameters of the tumor, respectively.
The antitumor effect of the compound was evaluated by TG (%). TGI (%), reflecting the tumor growth inhibition rate. TGI (%) calculation: TGI (%)=[1−(the average tumor volume at the end of a treatment group−the average tumor volume at the beginning of the treatment group)/(the average tumor volume at the end of the treatment of the solvent control group−The average tumor volume at the start of treatment in the solvent control group) was ×100%. Solvent control: Vehicle (10% hydroxypropyl-β-cyclodextrin solution).

[3] = 1.5 mg/kg, day 27 after administration
[4] = 1.5 mg/kg, day 28 after administration
[5] = 5 mg/kg, day 28 after administration

Chain of hERG potassium channel (Q12809 whole entry): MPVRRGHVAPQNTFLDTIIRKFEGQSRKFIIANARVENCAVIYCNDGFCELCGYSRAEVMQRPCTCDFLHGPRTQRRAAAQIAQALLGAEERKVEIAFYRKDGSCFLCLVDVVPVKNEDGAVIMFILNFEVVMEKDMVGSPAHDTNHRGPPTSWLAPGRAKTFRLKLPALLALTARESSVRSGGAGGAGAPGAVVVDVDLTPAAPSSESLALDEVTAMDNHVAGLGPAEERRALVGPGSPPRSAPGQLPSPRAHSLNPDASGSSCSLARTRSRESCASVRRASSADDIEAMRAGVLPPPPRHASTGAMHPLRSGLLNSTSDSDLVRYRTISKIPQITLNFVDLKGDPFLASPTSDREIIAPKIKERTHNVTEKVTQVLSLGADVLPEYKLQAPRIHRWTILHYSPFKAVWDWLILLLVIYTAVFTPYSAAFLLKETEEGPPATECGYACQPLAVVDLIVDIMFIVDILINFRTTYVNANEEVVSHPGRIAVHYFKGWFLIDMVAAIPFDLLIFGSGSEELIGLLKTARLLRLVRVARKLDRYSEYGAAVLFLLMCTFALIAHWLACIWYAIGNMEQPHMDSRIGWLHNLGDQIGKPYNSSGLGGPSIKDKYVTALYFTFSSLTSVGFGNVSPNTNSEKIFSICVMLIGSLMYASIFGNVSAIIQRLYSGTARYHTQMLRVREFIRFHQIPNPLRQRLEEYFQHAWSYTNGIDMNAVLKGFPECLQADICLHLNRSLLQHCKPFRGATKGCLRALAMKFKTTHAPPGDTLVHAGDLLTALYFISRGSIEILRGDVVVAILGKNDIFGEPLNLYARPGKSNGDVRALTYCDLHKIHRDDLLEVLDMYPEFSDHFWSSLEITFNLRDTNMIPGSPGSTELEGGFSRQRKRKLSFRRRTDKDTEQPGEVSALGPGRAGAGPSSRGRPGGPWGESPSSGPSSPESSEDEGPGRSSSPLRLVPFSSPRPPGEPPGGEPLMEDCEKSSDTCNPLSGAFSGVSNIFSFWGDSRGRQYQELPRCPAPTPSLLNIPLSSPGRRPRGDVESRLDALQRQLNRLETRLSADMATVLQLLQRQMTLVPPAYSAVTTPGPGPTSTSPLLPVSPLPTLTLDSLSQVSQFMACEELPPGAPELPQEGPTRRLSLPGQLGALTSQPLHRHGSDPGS

Row | Cmax [1] [ng/mL] | clearance [1] [mL/min/kg] | half-life [1] [h] | Vd [1] [L/kg] | bioavailability [1] [%] | AUC(0-t) [1] [µM·h] | SMILES | IC50 (hERG potassium channel) [µM] | TGI (%) [2, 3] [%] | Tumor volume (mm^3) (Day 27) [2, 3] | TGI (%) [2, 4] [%] | Tumor volume (mm^3) (Day 28) [2, 4] | TGI (%) [2, 5] [%] | Tumor volume (mm^3) (Day 28) [2, 5]
1 | 25.3 | 92 | 4.5 | 28.5 | 21.5 | 0.17 | N[C@H]1CC[C@H](c2nc(C3(CN[C@@H]4C[C@H]4c4ccccc4)CC3)no2)CC1 [Example 144] | > 40 | 83.5 | 180 ± 21 |  |  |  | 
2 | 11.9 | 108 | 11.7 | 81.8 | 9.1 | 0.0654 | N[C@H]1CC[C@@H](c2nc(C3(CN[C@@H]4C[C@H]4c4ccccc4)CC3)no2)CC1 [Example 145] | > 40 | 66.6 | 250 ± 40 |  |  |  | 
3 | 49.5 | 104 | 2.4 | 20.9 | 36.7 | 0.271 | N[C@H]1CC[C@H](c2cc(C3(CN[C@@H]4C[C@H]4c4ccccc4)CC3)no2)CC1 [Example 241] | > 40 |  |  | 66 | 251 ± 35 | 110 | 61 ± 10
